Measured values from patent US20190231847A1, “TREATMENT OF OCULAR DISEASE” (priority 2016, published 2019).
Read-outs that look alike come from different tables or passages of the source.

How the values were obtained:
[1] = tested on: retinal inflammation; experiment: Mouse experimental autoimmune uveitis (EAU) model, clinical score from fundus images (TEFI); conditions: for Difference between day 14 p.i. and day 24 p.i. (clinical score): paired Student's t test
Description: The effect of ALM201 on autoimmune uveitis was tested in a mouse model of experimental autoimmune uveitis (EAU).
All mice were maintained in a normal experimental room and exposed to a 12-hour-dark-12-hour light cycle.
An additional 1 mg Bordetella pertussis toxin (Tocris Bioscience, Bristol, UK) was administered intraperitoneally immediately after peptide injection.
Mouse pupils were dilated with 1% atropine sulphate and 2.5% phenylephrine hydrochloride (Chauvin, Essex, UK). The animals were anaesthetised by isofluorane. […] Clinical score of retinal inflammation was accessed using the criteria described previously by us (Xu et al. 2008a).
Ten mice were assigned into each group.
All animals were treated for 10 days from day 14 to 24 p.i.
Group 2: ALM201 0.3 mg/kg in 100 ml, i.p. injection, once daily.
Group 3: ALM201 3 mg/kg in 100 ml, i.p. injection, once daily.
Group 4: Dexamethasone 0.5 mg/kg in 100 ml, p.o. (gavage), once daily.
Group 5: ALM201 0.3 mg/kg in 100 ml, i.p. injection+Dexamethasone 0.5 mg/kg in 100 ml, p.o. (gavage) once daily.
Data (Clinical score and histological score) was expressed as mean±SD. One way ANOVA followed by the Tukey's Multiple Comparison Test was used to detect difference between all treatment groups. In addition, Mann-Whitney U test (two tails) was used to detect the difference between ALM201 or dexamethasone treated group and PBS control group. Paired Student's t test was used to compare clinical score before and after treatment.

[2] = Bodyweight of EAU mice during the course of treatment; conditions: Dexamethasone 0.5 mg/kg p.o.; ALM201 0.3 mg/kg i.p.+Dexamethasone 0.5 mg/kg p.o.
Source text: (§4) Bodyweight (BW) of each mouse was monitored daily during the course of treatment.

[3] = tested on: cell infiltrate, corneal swelling and blood vessels; experiment: H&E staining of sutured rat corneas, Example 4; type: in vivo
Description: (§1) Approximately 24 hours after the last treatment the eyes were imaged and clinically scored. The sutured eyes were scored based on vessel density, vessels distance to suture and inflammation. Vessel density was scored out of three, 0=no density, 1=mild, 2=moderate, 3=high. Vessels distance to suture was scored out of four, 0=no reach, 1=small distance, 2=moderate distance, 3=¾ of the way, 4=reached sutures and inflammation was scored out of three, 0=none, 1=minimal, 2=moderate, 3=severe. After clinical scoring the eyes were enucleated, tissue processed, wax embedded and cut into 5 μm sections while taking care to find the sutured area. Sections were stained with haematoxylin and eosin (H&E) to confirm suture location in each eye and adjacent slides were then used for immunohistochemistry to identify CD44+ cells and FKBPL expression as well NFκB and p-IκBα.
(§2) Sections (5 μm) were stained with haematoxylin and eosin (H&E) to confirm suture location in each eye. Adjacent slides were then used for immunohistochemistry to identify, CD44+ cells and FKBPL expression.

[4] = tested on: neovascularisation induced by sutures in the cornea; experiment: Rat corneal suture model, Example 1 (blinded grading at day 6, images); type: in vivo
Description: To assess the action of ALM201 (SEQ ID NO:3) on the ocular surface, the ability to halt vessel growth was measured. Vessel growth was stimulated through a well-accepted model (Shi et al., 2011) whereby a suture was placed in the central cornea of rat eyes (FIG. 1). We have shown the rat eye is similar anatomically to the human eye (Moore J E, McMullen C B, Mahon G and Adamis A P. The corneal epithelial stem cell. DNA Cell Biol. 2002; 21(5-6):443-51; incorporated herein by reference).
The experimental groups were: • Subconjunctival injection of peptide (5 rats), control group (5 rats) and positive control group (5 rats) • Intrastromal injection of peptide (5 rats), control group (5 rats) and positive control group (5 rats) • Topical application of peptide (5 rats), control group (5 rats) and positive control group (5 rats)
A suture was placed in the central cornea of one eye of each animal while the control eye remained untouched. For the injection groups, peptide was added to the rat's eyes at day 0, day 3, and day 6. For the topical application group, peptide and the positive control was added daily. Each day after suture, rats were monitored for vessel growth and photographed using a Hawk Eye Portable Digital Slit Lamp (Dioptrix, France) and inverted microscope (Nikon's E600FN; Surrey, UK). At a time point when a difference is noted (e.g. day 6) between untreated and peptide treated animals, they received 8 μg/g tail vein injections of an endothelial-specific fluorescein-conjugated lectin (Lycopersicon esculentum; Vector Laboratories, Burlingame, Calif.). Thirty minutes later, the eyes were harvested and fixed with 10% neutral buffered formalin for 24 hours. The corneas were isolated and flat-mounted on glass slides. The fluorescence in the perfused vessels was captured using a Leica SP5 multiphoton microscope (Milton Keynes, UK). Vessel formation within tagged information file format (.tiff) files was measured by visualization with Image J (Rasband, 1997-2014).
At day 6 all rats were graded by an opthalmologist blinded to the treatment. Grading scales were as follows:
Vessel distance from suture: 0=no reach; 1=small distance; 2=moderate distance; 3=¾ of the way; 4=reached sutures;
Vessel density grading: 0=no density; 1=mild; 2=moderate; 3=high Inflammation grading: 0=none; 1=minimal; 2=moderate; 3=severe;

[5] = tested on: infiltrated cells and CD68+ cells in sutured cornea; experiment: Histological analysis (H&E, CD68+) of sutured rat eyes, Example 3; type: in vivo; conditions: topical ALM201, day 6 after suture and treatment
Description: FIG. 11 Histological analysis by haematoxylin and eosin (H&E) staining showing increased infiltration of cells in control samples (PBS or dexamethasone) compared to treated samples (ALM201, 1 μM or 100 μM) at day 6 after suture and treatment. (A) Haematoxylin and eosin stained sections for each of the experimental groups. White arrows indicate sutures and black arrows show blood vessels (scale bar=500 μm). […] (B) The number of total infiltrated cells and (C) number of CD68+ infiltrated cells in each experimental group was quantitated, with higher numbers of infiltrated cells present in the control group compared to the peptide treated group.
On day 0, sutures where placed into the cornea of rats to induce corneal neovascularisation and inflammation. The eyes were treated for 3 days or 6 days with 16 μl of ALM201 (100 nM and 100 μM) or PBS (vehicle control).
Eyes were enucleated on the 3rd or 6th day one hour after treatment and frozen in gelatine.
Cross sections (10 μm) were taken at the centre of the eye for MSI, adjacent sections were stained with haematoxylin and eosin (H&E).

[6] = tested on: FKBPL; experiment: Immunohistochemistry of FKBPL in rat cornea; type: in vivo; conditions: 1 μM ALM201
Description: as §1, §2

[7] = mouse, in vivo, ip, 0.3 mg/kg
Source text: as §4

[8] = tested on: neovascularisation and inflammation in the injured cornea; experiment: ALM201 concentration titration in rat corneal suture model, clinical scoring, Example 4; type: in vivo; conditions: for Vessel density, clinical score compared to PBS control group / Inflammation scoring in comparison to PBS treated group: scored day 7
Description: Each rat was anesthetised and two 10-0 sutures were placed intrastromally into the temporal cornea of the left eye, 1.5 mm from the limbus. The sutures were left in place for the entirety of the experiment. The right eye was kept as a no suture control but given the same treatment as the left eye. Treatment began approx. 24 hours after suture placement and continued once a day for 6 days.
as §1

[9] = tested on: CD44; experiment: Immunohistochemistry staining for CD44 in rat cornea; type: in vivo; conditions: sutured corneas, 1 μM ALM201
Description: as §1, §2

[10] = tested on: p-IκBα; experiment: Immunohistochemistry of p-IκBα expression in rat cornea; type: in vivo; conditions: 1 μM ALM201
Description: as §1
(§3) NFκB and phosphorylated-IκBα antibodies were also used in this experiment to see if ALM201 affected the NFκB pathway. Nuclear factor kappa-light-chain-enhancer of B cells or NFκB is a transcription factor which is involved in several processes including inflammation, B cell development, apoptosis, immune regulation and cell proliferation. There are 5 different NFκB heterodimers in the NFκB family, depending on which heterodimer is activated they can activate or repress the transcription of the above process. […]

[11] = tested on: NFκB; experiment: Immunohistochemical analysis of free NFκB expression in rat cornea; type: in vivo; conditions: 1 μM ALM201
Description: as §1, §3

[12] = tested on: retinal inflammation; experiment: Mouse EAU model, histopathology (H&E) and histological score; type: in vivo, C57BL/6J mice
Source text: On day 24 p.i., fundus images were taken from all experimental mice using the TEFI system. Mice were then sacrificed by CO2 inhalation and eyes were carefully removed. All eyes were fixed in 2.5% (w/v) glutaraldehyde (Agar Scientific Ltd, Cambridge, UK) for 2 days at room temperature. Eyes were embedded in paraffin for standard H&E staining. Histological scores of retinal inflammation were graded using a standard scoring system described previously (Dick A. D., Cheng Y. F., Liversidge J., Forrester J. V., 1994. Immunomodulation of experimental autoimmune uveoretinitis: a model of tolerance induction with retinal antigens. Eye 8 (Pt 1), 52-59, incorporated herein by reference). Retinal sections from at least three different layers from each eye were used for histopathological analysis. The average score from three layers was used as the final pathological score of the eye.

[13] = Dexamethasone 0.5 mg/kg p.o. once daily day 14-24 p.i., 10 mice
[14] = subconjunctival injection, 100 nM ALM201, Triamcinolone positive control
[15] = ALM201 0.3 mg/kg i.p. once daily day 14-24 p.i., 10 mice
[16] = ALM201 3 mg/kg i.p. once daily day 14-24 p.i., 10 mice
[17] = once a day for 6 days, ALM201 100 μM
[18] = ALM201 0.3 mg/kg, after 10 days therapy

C[C@@H]1C[C@H]2[C@@H]3CCC4=CC(=O)C=C[C@]4(C)[C@@]3(F)[C@@H](O)C[C@]2(C)[C@@]1(O)C(=O)CO [Dexamethasone, reference compound]
No. of mice with decreased score [1, 13]: 3
No. of mice with increased score [1, 13]: 3
No. of mice with increased score (%) [1, 13]: (30%)
No. of mice with no change [1, 13]: 4
Average increment in EAU score ([1]; Dexamethasone 0.5 mg/kg, the 3 mice with increased score): 0.80
Average reduction in EAU score ([1]; Dexamethasone 0.5 mg/kg, the 3 mice with reduced score): 0.69
Bodyweight during the 10-day treatment period [2]: stable BW

IRQQPRDPPTETLELEVSPDPAS (listed as Homo Sapiens) [ALM201]
Cell infiltrate, corneal swelling and blood vessels (H&E) ([3]; ALM201 0.01 μM to 10 μM): decreased as the ALM201 concentration was increased
Corneal swelling (H&E) ([3]; ALM201 100 μM): more corneal swelling was observed
Suture-induced neovascularisation in images ([4]; Hooded Lister Rats, 100 nM ALM201, dexamethasone, vs PBS control): absence of neovascularisation
Growth of new blood vessels after corneal damage ([4]; after subconjunctival injection or topical application): prevented growth of new blood vessels
Vessel distance from suture compared to PBS control ([4]; subconjunctival injection day 0, 3, 6, 100 nM ALM201, graded day 6): significant difference of p<0.01
Vasculature in images (neovascularisation induced by sutures) [4, 14]: normal vasculature
Vasculature in images (neovascularisation induced by sutures) ([4]; topical treatment, daily): normal vasculature
Vessel density compared to PBS control ([4]; topical treatment, daily): significantly different
Anti-inflammatory activity ([4]; when injected): had anti-inflammatory activity when injected
Mice in which progression was prevented or inflammation reduced ([1]; ALM201 0.3 mg/kg): 20%
Mice with decreased level of EAU progression ([1]; ALM201 0.3 mg/kg): 80%
No. of mice with decreased score (%) [1, 15]: (10%)
No. of mice with increased score [1, 15]: 8
No. of mice with increased score (%) [1, 15]: (80%)
No. of mice with no change (%) [1, 15]: (10%)
Difference between day 14 p.i. and day 24 p.i. (clinical score) ([1]; ALM201 0.3 mg/kg i.p., 0.3 mg/kg): did not significant change and No
Retinal infiltrates in fundus images compared to PBS treated EAU mice ([1]; ALM201 0.3 mg/kg, day 24 p.i.): the number of infiltrates was fewer
Average increment in clinical score, day 14 to day 24 p.i. ([1]; ALM201 0.3 mg/kg, the 8 mice with increased score): 0.68
No. of mice with decreased score [1, 16]: 3
No. of mice with increased score (%) [1, 16]: (40%)
No. of mice with no change [1, 16]: 3
Difference between day 14 p.i. and day 24 p.i. (clinical score) ([1]; ALM201 3 mg/kg i.p.): No
Average decrement in clinical score, day 14 to day 24 p.i. ([1]; ALM201 3 mg/kg, the 3 mice with decreased score): 0.33
Average increment in clinical score, day 14 to day 24 p.i. ([1]; ALM201 3 mg/kg, the four mice with increased score): 0.82 point
CD68+ cell infiltrates compared to PBS-treated and dexamethasone-treated animals [5]: reduced
Neovascularisation in histological analysis compared to controls [5]: decreased neovascularisation
Total cell infiltrates compared to PBS-treated and dexamethasone-treated animals [5]: reduced total cell infiltrates
FKBPL expression in the corneal epithelium and stroma in comparison with PBS treated sutured corneas and normal corneas [6]: increased
Bodyweight during the 10-day treatment period [7]: stable BW
Inflammation and vessel density scores compared with dexamethasone ([8]; ALM201 100 μM): significant difference in scores
Vessel density, clinical score compared to PBS control group ([8]; once a day for 6 days, ALM201 1 μM, dexamethasone positive control): significant decrease
Vessel density, clinical score compared to PBS control group ([8]; once a day for 6 days, ALM201 10 μM): significant decrease
Inflammation scoring in comparison to PBS treated group ([8]; once a day for 6 days, ALM201 10 μM, dexamethasone positive control): significant difference
Inflammation scoring in comparison to PBS treated group [8, 17]: significant difference
Vessel density, clinical score compared to PBS control group [8, 17]: significant decrease
Vessel distance to sutures, clinical score compared to PBS vehicle control ([8]; once a day for 6 days, scored day 7 after suture, ALM201 1 μM, dexamethasone positive control): significantly different
Most effective concentrations in preventing angiogenesis and inflammation ([8]; titration 0.01 μM to 100 μM): 1 µM and 10 µM
CD44 expression compared to sutured PBS control [9]: decrease in CD44 expression
p-IκBα expression compared to PBS treated sutured corneas ([10]; sutured corneas): reduced
p-IκBα expression ([10]; unsutured corneas): no expression of p-IκBα
NFκB expression compared to PBS control sutured corneas ([11]; sutured corneas): reduction in NFκB expression in the stroma
Pattern of NFκB expression ([11]; unsutured corneas): no effect
Infiltrating cells in retinal histology [12, 18]: Fewer infiltrating cells
Retinal structure compared to PBS treated mice [12, 18]: retinal structure was better preserved
Retinal inflammation graded by standard histological scoring system (FIG. 8H) ([12]; ALM201 0.3 and 3 mg/kg): dose-dependently suppressed retinal inflammation

C[C@]12C=CC(=O)C=C1CC[C@H]1[C@@H]3C[C@@H](O)[C@](O)(C(=O)CO)[C@@]3(C)C[C@H](O)[C@@]12F [Triamcinolone, reference compound]
Vasculature in images (neovascularisation induced by sutures) [4, 14]: normal vasculature
